# Assay results reported in ChEMBL document CHEMBL1156738, “Design, synthesis and evaluation of novel oxazaphosphorine prodrugs of 9-(2-phosphonomethoxyethyl)adenine (PMEA, adefovir) as potent HBV inhibitors” (Bioorg Med Chem Lett, 2009).
# pIC50: −log10 of the molar value.
# Columns and labels:
# [1] = Selectivity index, ratio of CC50 for human HepG2(2.2.15) cells to IC50 for Hepatitis B virus; assay type: functional
# [2] = Cytotoxicity against human HepG2(2.2.15) cells; assay type: cell-based
# [3] = system: Hepatitis B virus; assay: Antiviral activity against Hepatitis B virus infected HepG2(2.2.15) cells assessed as inhibition of viral cytoplasmic DNA synthesis by real-time PCR; assay type: functional, organism-based
# [4] = Metabolic stability in human liver microsomes assessed as half life; assay type: ADME, Microsome
# [5] = system: Hepatitis B virus; assay: Ratio of compound IC50 to adefovir dipivoxil IC50 for Hepatitis B virus; assay type: functional
# [6] = species: Homo sapiens; assay: Metabolic stability in human plasma assessed as half life
smiles,measurement,setting,value
COC(=O)CN1CCCOP1(=O)COCCn1cnc2c(N)ncnc21.O=C(O)/C=C/C(=O)O (racemic),Ratio CC50/IC50,[1],683
same,CC50,[2],602 µM
same,pIC50,[3],6.06
COC(=O)[C@H](C)N1CCCO[P@]1(=O)COCCn1cnc2c(N)ncnc21.O=C(O)/C=C/C(=O)O,Ratio CC50/IC50,[1],1270
same,CC50,[2],650 µM
same,pIC50,[3],6.29
COC(=O)[C@H](Cc1ccccc1)N1CCCOP1(=O)COCCn1cnc2c(N)ncnc21.O=C(O)/C=C/C(=O)O (some centres not stated),Ratio CC50/IC50,[1],277
same,CC50,[2],726 µM
same,pIC50,[3],5.58
CC(C)(C)C(=O)OCOP(=O)(COCCn1cnc2c(N)ncnc21)OCOC(=O)C(C)(C)C [ADEFOVIR DIPIVOXIL],CC50,[2],555 µM
same,pIC50,[3],6.48
CCOC(=O)[C@H](C(C)C)N1CCCO[P@@]1(=O)COCCn1cnc2c(N)ncnc21.O=C(O)/C=C/C(=O)O,Ratio CC50/IC50,[1],9
same,CC50,[2],468 µM
same,pIC50,[3],4.30
CC(C)OC(=O)[C@H](C(C)C)N1CCCO[P@]1(=O)COCCn1cnc2c(N)ncnc21.O=C(O)/C=C/C(=O)O,Ratio CC50/IC50,[1],103
same,CC50,[2],592 µM
same,pIC50,[3],5.24
CCOC(=O)[C@@H](C(C)C)N1CCCO[P@]1(=O)COCCn1cnc2c(N)ncnc21.O=C(O)/C=C/C(=O)O,Ratio CC50/IC50,[1],8
same,CC50,[2],400 µM
same,pIC50,[3],4.30
COC(=O)[C@H](C)N1CCCO[P@@]1(=O)COCCn1cnc2c(N)ncnc21.O=C(O)/C=C/C(=O)O,Ratio CC50/IC50,[1],649
same,CC50,[2],590 µM
same,pIC50,[3],6.04
COC(=O)[C@H](C(C)C)N1CCCO[P@]1(=O)COCCn1cnc2c(N)ncnc21.O=C(O)/C=C/C(=O)O,half-life,[4],3.6 h
same,Ratio CC50/IC50,[1],4800
same,CC50,[2],577 µM
same,pIC50,[3],6.92
same,Ratio,[5],3
same,half-life,[6],> 6 h
CCOC(=O)[C@@H](C(C)C)N1CCCO[P@@]1(=O)COCCn1cnc2c(N)ncnc21.O=C(O)/C=C/C(=O)O,Ratio CC50/IC50,[1],9
same,CC50,[2],439 µM
same,pIC50,[3],4.30
CCC(C)[C@@H](C(=O)OC)N1CCCOP1(=O)COCCn1cnc2c(N)ncnc21.O=C(O)/C=C/C(=O)O (some centres not stated),Ratio CC50/IC50,[1],293
same,CC50,[2],648 µM
same,pIC50,[3],5.66
COC(=O)[C@H](C(C)C)N1CCCO[P@@]1(=O)COCCn1cnc2c(N)ncnc21.O=C(O)/C=C/C(=O)O,half-life,[4],> 6 h
CCOC(=O)[C@H](C(C)C)N1CCCO[P@]1(=O)COCCn1cnc2c(N)ncnc21.O=C(O)/C=C/C(=O)O,Ratio CC50/IC50,[1],187
same,CC50,[2],560 µM
same,pIC50,[3],5.52
COC(=O)[C@H](CC(C)C)N1CCCOP1(=O)COCCn1cnc2c(N)ncnc21.O=C(O)/C=C/C(=O)O (some centres not stated),Ratio CC50/IC50,[1],694
same,CC50,[2],222 µM
same,pIC50,[3],6.49
